Test results reported in patent US6046217A, “2,3,5-trisubstituted pyridines as inhibitors of cyclooxygenase-2” (Merck Frosst Canada & Co., priority 1998, dated 2000).

What follows are molecules tested against COX-1 (Homo sapiens, UniProt P23219) (assay: Assay of COX-1 activity from U937 cell microsomes (PGE2)). Details: U-937 cell microsomes, 15 min preincubation; read-out: COX-1 (IC50 mM) U-937.
COX-1, sequence (P23219 24-599): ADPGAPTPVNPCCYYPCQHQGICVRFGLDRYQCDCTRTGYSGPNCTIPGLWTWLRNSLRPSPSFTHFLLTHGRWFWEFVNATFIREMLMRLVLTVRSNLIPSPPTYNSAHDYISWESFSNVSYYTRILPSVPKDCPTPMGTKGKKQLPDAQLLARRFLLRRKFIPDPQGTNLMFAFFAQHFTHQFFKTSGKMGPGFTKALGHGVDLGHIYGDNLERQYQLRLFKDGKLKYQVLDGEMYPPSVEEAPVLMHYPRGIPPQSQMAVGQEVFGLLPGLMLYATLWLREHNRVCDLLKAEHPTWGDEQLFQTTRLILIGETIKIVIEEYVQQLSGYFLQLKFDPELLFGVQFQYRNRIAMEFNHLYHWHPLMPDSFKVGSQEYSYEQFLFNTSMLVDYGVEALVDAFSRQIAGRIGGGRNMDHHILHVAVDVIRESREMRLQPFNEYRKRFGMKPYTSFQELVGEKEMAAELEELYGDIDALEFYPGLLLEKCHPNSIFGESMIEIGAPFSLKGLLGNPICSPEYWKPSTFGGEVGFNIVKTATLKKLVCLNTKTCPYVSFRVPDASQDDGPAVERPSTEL
Assay type: biochemical
Parameters: Assay of COX-1 Activity from U937 Cell Microsomes; endogenous in cells; host or cells: U937 cells, 100,000 x g microsomal pellet
Procedure: U 937 cells are pelleted by centrifugation at 500×g for 5 min and washed once with phosphate-buffered saline and repelleted. Cells are resuspended in homogenization buffer consisting of 0.1 M Tris-HCl, pH 7.4, 10 mM EDTA, […] leupeptin, 2 μg/ml soybean trypsin inhibitor, 2 μg/ml aprotinin and 1 mM phenyl methyl sulfonyl fluoride. The cell suspension is sonicated 4 times for 10 sec and is centrifuged at 10,000×g for 10 min at 4° C. The supernatant is centrifuged at 100,000×g for 1 hr at 4° C. The 100,000×g microsomal pellet is resuspended in 0.1 M Tris-HCl, pH 7.4, 10 mM EDTA to approximately 7 mg protein/ml and stored at -80° C.
Microsomal preparations are thawed immediately prior to use, subjected to a brief sonication, and then diluted to a protein concentration of 125 μg/ml in 0.1 M Tris-HCl buffer, pH 7.4 containing 10 mM EDTA, 0.5 mM phenol, 1 mM reduced glutathione and 1 μM hematin. Assays are performed in duplicate in a final volume of 250 μl. Initially, 5 μl of DMSO vehicle or drug in DMSO are added to 20 μl of 0.1 M Tris-HCl buffer, pH 7.4 containing 10 mM EDTA in wells of a 96-deepwell polypropylene titre plate. 200 μl of the microsomal preparation are then added and pre-incubated for 15 min at room temperature before addition of 25 μl of […] arachidonic acid in […] Tris-HCl and 10 mM EDTA, pH 7.4. Samples are incubated for 40 min at room temperature and the reaction is stopped by the addition of 25 μl of 1 N HCl. Samples are neutralized with 25 μl of 1 N NaOH prior to quantitation of PGE2 content by radioimmunoassay (Dupont-NEN or Amersham assay kits). Cyclooxygenase activity is defined as the difference between PGE2 levels in samples incubated in the presence of arachidonic acid and ethanol vehicle.
In the assay, inhibition is determined by measuring the amount of prostaglandin E2 (PGE2) synthesized in the presence of arachidonic acid, cyclooxygenase-1 or cyclooxygenase-2 and a putative inhibitor.
In the case of `CS(=O)(=O)c1ccc(-c2cc(C(F)(F)F)cnc2O[C@@H]2CCC[C@@H]2O)cc1` (relative stereo) [Example 29, 2-(cis-2-Hydroxycyclopentyloxy)-3-(4-methylsulfonyl)phenyl-5-trifluoromethylpyridine], the IC50 is reported as > 0.01 mM. With `CS(=O)(=O)c1ccc(-c2cc(C(F)(F)F)cnc2O[C@H]2CCC[C@@H]2O)cc1` (relative stereo) [Example 30, 2-(trans-2-Hydroxycyclopentyloxy)-3-(4-methylsulfonyl)phenyl-5-trifluoromethylpyridine] the IC50 was 0.003 to 0.01 mM. In the case of `C[C@@]1(O)CCC[C@H]1Oc1ncc(C(F)(F)F)cc1-c1ccc(S(C)(=O)=O)cc1` (relative stereo) [Example 35, 2-(trans-2-Hydroxy-2-methylcyclopentyloxy)-3-(4-methylsulfonyl)phenyl-5-trifluoromethylpyridine], the IC50 is reported as 0.001 to 0.003 mM. Work on `CCC(C)(O)CSc1ncc(C(F)(F)F)cc1-c1ccc(S(C)(=O)=O)cc1` (single isomer, unassigned; (+)) [Example 45, (+)-2-(2-Hydroxy-2-methyl-1-thiobutyloxy)-3-(4-methylsulfonyl)phenyl-5-trifluoromethylpyridine] yielded an IC50 of 0.003 to 0.01 mM. In the case of `CCC(C)(O)CSc1ncc(C(F)(F)F)cc1-c1ccc(S(C)(=O)=O)cc1` (single isomer, unassigned; (-)) [Example 46, (-)-2-(2-Hydroxy-2-methyl-1-thiobutyloxy)-3-(4-methylsulfonyl)phenyl-5-trifluoromethylpyridine], the IC50 is reported as 0.001 to 0.003 mM.
